From publication PMC4478171, “Synthesis, characterization, and preclinical validation of a PET radiopharmaceutical for interrogating Aβ (β-amyloid) plaques in Alzheimer’s disease” (EJNMMI Research, 2015)
“Also recorded” adds a separate entry of the source. Where two headings read alike, the source gives them in different places.

Tests used:
[1] = molecular target: cortical Aβ plaques in AD frontal cortex sections (Homo sapiens, UniProt P05067); assay: Autoradiography on AD frontal cortex sections with IHC correlation; type: binding; conditions: 7A […] with 18F-7B 10 nM
cortical Aβ plaques in AD frontal cortex sections, sequence (P05067 672-711 limits assumed): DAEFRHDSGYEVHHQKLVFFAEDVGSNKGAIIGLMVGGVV
Experimental: Frozen AD frontal cortex sections (12 μm) were obtained using a TBS Minotome PLUS Cryostat. The tissue sections were thaw-mounted onto Superfrost Plus (Fisherbrand 12-550-15 (Fisherbrand, Leicestershire, UK)) microscope slides, allowed to air dry for 10 to 15 min, and stored at −80°C. For autoradiography, brain sections were brought to room temperature for 5 min and then pre-incubated in assay buffer (30 mM Tris-HCl, pH 7.4 + 0.1% BSA) for 10 min at RT. Sections were incubated with ^18F-7B (300 μL/slide; 10 nM) in the assay buffer for 60 min at room temperature. For determining nonspecific binding, adjacent sections were incubated in the additional presence of 2.5 μM cold ligand 7A. Sections were then washed at RT for 1 min in 30 mM Tris-HCl pH 7.4, 2 min in 70% ethanol/30 mM Tris-HCl, 1 min in 30% ethanol/30 mM Tris-HCl, and 1 min in 30 mM Tris-HCl (washing protocol using literature precedents. Sections were then dried and exposed to phosphor-imaging screen (BAS-MS 2025) for 30 min. Autoradiography images were obtained on a Fuji Bio-Imaging System FLA-7000 (Tokyo, Japan) and analyzed using MultiGauge software (Fuji, Tokyo, Japan). Following exposure to a phosphor-imaging screen, the sections were then blocked for 60 min at room temperature with 3% milk-0.25% Tween 20-PBS buffer. […]

Aβ plaques = test system: Aβ plaques; design: method as in PMID 25003699; conditions: transgenic mice; cited from earlier work
[2] = test system: Aβ plaques in autopsy-confirmed AD human tissues; design: method as in PMID 25003699; conditions: cited from earlier work
AD homogenates = AD homogenates (Homo sapiens, UniProt P05067); conditions: cited from earlier work
AD homogenates, sequence (P05067 672-711 limits assumed): as above

[3] = comparison values, no reference given; cited from earlier work
[4] = normal mice, cited from earlier work

In the case of `CN(C)c1ccc(/C=C/c2nc3ccc(OCCF)cc3s2)cn1` [7A, (E)-5-(2-(6-(2-fluoroethoxy)benzo[d]thiazol-2-yl)vinyl)-N,N-dimethylpyridin-2-amine], the “inhibition of 18F-7B binding in autoradiography” value [1] is given as “binding was inhibited”, the “BBB penetration and plaque labeling by multiphoton imaging” value (Aβ plaques) is given as “could traverse the BBB to label parenchymal plaques in the brain of transgenic mice” and the plaque types labeled [2] is given as “labels diffuse plaques in autopsy-confirmed AD human tissues; also recorded: binding to both diffuse and fibrillary plaques”.

For `CNc1ccc(/C=C/c2ccc(OCCOCCOCCF)cc2)cc1` [Florbetaben], the BP (AD homogenates) is given as 152, the Bmax (AD homogenates) is given as 2,431 nM and the Kd (AD homogenates) is given as 16 nM.

For `CNc1ccc(/C=C/c2ccc(OCCOCCOCCF)nc2)cc1` [Florbetapir, (E)-4-(2-(6-(2-(2-(2-^18F-fluoroethoxy)ethoxy)-ethoxy)pyridin-3-yl)vinyl)-N-methyl benzenamine], the “log P” value [3] is given as 2.4, the Brain uptake ([4]; 2 min) is given as 7.33 ± 1.54 %ID/g and the Brain uptake ([4]; 2 h) is given as 1.80 ± 0.07 %ID/g. For the same compound, the “brain uptake ratio 2 min/2 h” value [4] was 4.07.
